Results reported in US20210030022A1, “NOVEL USE OF SUBSTITUTED CHROMAN-6-OLS” (DSM IP ASSETS B.V., priority 2018, published 2021).

Columns and labels:
[1] = Oil Stability Index in crude algal oil, Example 12; conditions: for prooxidant effect in algal oil: higher levels (2 mg/g)
Source text: To evaluate the efficacy of the compounds of formulae (4), (6), (8) and (9) in algal oils, only oil soluble compounds were used. […] Protection Factors of all these compounds, including MNT, in fish oil could be improved by the addition of AP (Tables 22-23) indicating the possibility of combining AP to all these novel compounds to improve the oxidative stability of matrices containing high amounts of unsaturated fatty acids such as fish oil.

Solubility in fish oil = type: physicochemical
Method: The compounds of formulae (4), (6), (8) and (9) were evaluated primarily for their oxidative stability by the Oil Stability Index (OSI) measurements. Two different levels of these antioxidants (0.5 and 2 mg/g) were used in 5 g of natural fish oil (Product code: FG30TG) and used in the Oxidative Stability Instrument at 80° C. with the air flow rate of 40 psi. The solubility of different amounts and types of antioxidants used in OSI was checked before and after the application. […]

[2] = Polymers generated at end of OSI experiment in fish oil, by LC; conditions: FG30TG oil, end of stabilization experiment
Method: The compounds of formulae (6) and (9) (see Table 14 below), compound of formula (4) (see Table 15 below) and compound of formula (8) (see Table 16 below) were used at different times in the Oxidative Stability instruments under similar operational conditions used for fish oil evaluations. MNT and the oil without any antioxidants (“Blank”) were always used to compare. Also, the synergistic effect of only oil soluble compounds with ascorbyl palmitate was determined using the OSI values. The polymers generated at the end of the experiment were determined by LC (LC=liquid chromatography). Polymers generated at the end of the stabilization experiment of fish oil with compounds of formulae 6 and 9 and AP are shown in Table 24. A combination of complex, polymeric compounds generated at the end of the oxidation cascade of unsaturated fatty acids indicate the levels of overall oxidation of the matrix. The generation of such polymers in fish oil containing these novel antioxidant compounds could be reduced considerably when AP was added as a synergistic compound (Table 24).

[3] = Oil Stability Index (OSI) in fish oil, Example 12; conditions: for OSI / Protection Factor (%): FG30TG fish oil; for antioxidant effect (OSI) in fish oil compared with MNT: Example 12, same level of MNT
Method: The compounds of formulae (4), (6), (8) and (9) were evaluated primarily for their oxidative stability by the Oil Stability Index (OSI) measurements. Two different levels of these antioxidants (0.5 and 2 mg/g) were used in 5 g of natural fish oil (Product code: FG30TG) and used in the Oxidative Stability Instrument at 80° C. with the air flow rate of 40 psi. The solubility of different amounts and types of antioxidants used in OSI was checked before and after the application.
The compounds of formulae (6) and (9) (see Table 14 below), compound of formula (4) (see Table 15 below) and compound of formula (8) (see Table 16 below) were used at different times in the Oxidative Stability instruments under similar operational conditions used for fish oil evaluations. MNT and the oil without any antioxidants (“Blank”) were always used to compare. Also, the synergistic effect of only oil soluble compounds with ascorbyl palmitate was determined using the OSI values. The polymers generated at the end of the experiment were determined by LC (LC=liquid chromatography).
The Protection Factors (PF) for each compound in oil were calculated in percentage as: […]

[4] = Storage stability in fish oil (PV, p-AV, CD), Example 12; conditions: FG30TG, 2 mg/g
Method: Tables 25, 26 and 27 show the PV (peroxide value), p-AV (p-anisidine value) and CD (Conjugated dienoic acid %) of the fish oil samples stabilized with compounds of formulae (6), (8) and (9), respectively.
For the storage stability study oil soluble compounds were used in fish oil at 2 mg/g level only. […] There was no considerable variation in p-AV and CD (Tables 26-27) during the storage.

[5] = Oxipres antioxidant efficacy value (EV) in fish meal; conditions: Oxipres 70° C., 5 bar O2, equimolar to BHT; EV relative to BHT (EV=1)
Method: Oxidative stability was assessed using an Oxipres (Mikrolab Aarhus A/S, Hojbjerg, Denmark). The ML OXIPRES® is designed to monitor the oxidation of heterogeneous products. Consumption of oxygen results in a pressure drop which is measured by means of pressure transducers. The samples are heated to accelerate the process and shorten the analysis time (Mikrolab Aarhus 2012).
Sample weights were 50 g. They were loaded into the Oxipres vessels and placed inside the stainless-steel pressure vessel and sealed. The pressure vessels were purged with pure oxygen and filled to an initial oxygen pressure of 5 bar and maintained at 70° C. during measurement (D. Ying, L. Edin, L. Cheng, L. Sanguansri, M. A. Augustin, LWT—Food Science and Technology 2015, 62, 1105-1111: “Enhanced oxidative stability of extruded product containing polyunsaturated oils.”).
The oxygen pressure was recorded as function of time. After sample load and temperature rise the pressure in the device is increasing within 10 hours up to the starting pressure. Thereafter it is decreasing. Consequently, the starting pressure is considered as being the pressure after 10 hours. The analysis ends after 130 hours at 70° C. The oxygen consumption ‘O2’ of the tested sample is calculated as follows: […]
A factor of protection called ‘EV’ (Efficacy Value) was developed to quantify with a relative number (relative to BHT) the antioxidant effect of the tested candidates. EV was calculated as follows:
EV, being relative to BHT (3,5-di-tert-butyl-4-hydroxy-toluene) (EV=1), makes it possible to compare the antioxidant compounds in a defined feed application.
Each of the compounds of formulae (1) to (6) were mixed into each matrix 1, 2 or 3 (pet food, poultry meal, fish meal) in an equimolar ratio compared to BHT. Batches of 200 g feed were produced in order to handle a minimum of 30 mg of antioxidant. First, a 1% pre-dilution of the antioxidant with the feed material was made. Then this pre-dilution was added to the final batch, mixed, sieved (1.25 mm sieve) and mixed using a turbula mixer. Thereafter 55 g of the final batch were packed into polyethylene bags, and stored at 4° C. until start of the Oxipres assay. Spare sample were stored at 4° C. Compound of formula (3) was measured in all three matrices. Compound of formula (1) was measured in matrix 1 and 2. Compound of formula (2) was measured in matrix 2. Compounds of formulae (4), (5) and (6) were measured in matrix 3. An efficacy value 0.7 has been considered as acceptable, an efficacy value ≥ the efficacy value of alpha-tocopherol as good, and an efficacy value ≥ the efficacy value of BHT as very good.

[6] = Table 20, 2 mg/g + 0.5 mg/g of AP (ascorbyl palmitate)
[7] = Table 22, 2 mg/g + 0.5 mg/g of AP

| SMILES | OSI values in algal oil compared with MNT [1] | prooxidant effect in algal oil [1] | Solubility in fish oil, 80° C. (Solubility in fish oil; 0.5 mg/g) | Solubility in fish oil, Room temp. (Solubility in fish oil; 0.5 mg/g) | Solubility in fish oil, 80° C. (Solubility in fish oil; 2.0 mg/g) | Solubility in fish oil, Room temp. (Solubility in fish oil; 2.0 mg/g) | Polymers (%) ([2]; 2 mg/g + 0.5 mg/g of AP) | Polymers (%) ([2]; 2 mg/g, without AP) | OSI ([3]; Table 14, 80° C., 0.5 mg/g) [h] | OSI ([3]; Table 14, 80° C., 2 mg/g) [h] | Protection Factor (%) ([3]; Table 17, 0.5 mg/g) | Protection Factor (%) ([3]; Table 17, 2 mg/g) | OSI [3, 6] [h] | OSI ([3]; Table 20, 2 mg/g, without AP) [h] | Protection Factor (%) [3, 7] [%] | Protection Factor (%) ([3]; Table 22, 2 mg/g, without AP) | antioxidant effect (OSI) in fish oil compared with MNT [3] | CD (conjugated dienoic acid in %) ([4]; 4 days) [%] | PV (peroxide value) ([4]; 4 days) | p-AV (p-anisidine value) ([4]; 4 days) | other results |
| --- | --- | --- | --- | --- | --- | --- | --- | --- | --- | --- | --- | --- | --- | --- | --- | --- | --- | --- | --- | --- | --- |
| Cc1c(C)c2c(c(C)c1O)CCC(C)(CCCC(C)C)O2 (centres unmarked) [Compound of formula (9)] | clearly lower OSI values than those of MNT | possible prooxidant effect | Soluble | Soluble | Soluble | Soluble | 31.06 | 40.34 | 5.75 | 6.05 | 26.37 | 32.97 | 8.93 | 6.30 | 92.8 | 36.1 | comparable to the antioxidative effect of MNT | 0.7 | 2.9 | 10.5 | CD (conjugated dienoic acid in %) ([4]; 6 days): 0.7%; PV (peroxide value) ([4]; 6 days): 7.3; p-AV (p-anisidine value) ([4]; 6 days): 9.9; CD (conjugated dienoic acid in %) ([4]; 8 days): 0.8%; PV (peroxide value) ([4]; 8 days): 8.8; p-AV (p-anisidine value) ([4]; 8 days): 10.3; CD (conjugated dienoic acid in %) ([4]; 11 days): 0.9%; PV (peroxide value) ([4]; 11 days): 11.2; p-AV (p-anisidine value) ([4]; 11 days): 10.5; CD (conjugated dienoic acid in %) ([4]; 13 days): 0.8%; PV (peroxide value) ([4]; 13 days): 15; p-AV (p-anisidine value) ([4]; 13 days): 10.5; CD (conjugated dienoic acid in %) ([4]; 15 days): 0.8%; PV (peroxide value) ([4]; 17 days): 19.2; p-AV (p-anisidine value) ([4]; 17 days): 11; CD (conjugated dienoic acid in %) ([4]; Initial): 0.7%; PV (peroxide value) ([4]; Initial): 0.9; p-AV (p-anisidine value) ([4]; Initial): 9.9 |
| Cc1c(C)c2c(c(C)c1O)CCC(C)(CO)O2 (centres unmarked) [Compound of formula (6), 2-Hydroxymethyl-2,5,7,8-Tetramethyl-6-Chromanol] | clearly lower OSI values than those of MNT | possible prooxidant effect | Soluble | Soluble | Soluble | Soluble | 25.09 | 37.37 | 7.05 | 7.30 | 54.95 | 60.44 | 11.20 | 6.15 | 141.9 | 32.8 | comparable to the effect of MNT | 0.7 | 4.1 | 10.4 | EV in Fish meal [5]: 1.03; CD (conjugated dienoic acid in %) ([4]; 6 days): 0.7%; PV (peroxide value) ([4]; 6 days): 7; p-AV (p-anisidine value) ([4]; 6 days): 9.7; CD (conjugated dienoic acid in %) ([4]; 8 days): 0.7%; PV (peroxide value) ([4]; 8 days): 7.9; p-AV (p-anisidine value) ([4]; 8 days): 10.2; CD (conjugated dienoic acid in %) ([4]; 11 days): 0.8%; PV (peroxide value) ([4]; 11 days): 10.2; p-AV (p-anisidine value) ([4]; 11 days): 10.4; CD (conjugated dienoic acid in %) ([4]; 13 days): 0.8%; PV (peroxide value) ([4]; 13 days): 14.9; p-AV (p-anisidine value) ([4]; 13 days): 10.3; CD (conjugated dienoic acid in %) ([4]; 15 days): 0.8%; PV (peroxide value) ([4]; 17 days): 18.6; p-AV (p-anisidine value) ([4]; 17 days): 10.7; CD (conjugated dienoic acid in %) ([4]; Initial): 0.7%; PV (peroxide value) ([4]; Initial): 0.9; p-AV (p-anisidine value) ([4]; Initial): 9.9 |
